Reference: US11000531B2, “Methods of treating certain depressive disorders and delirium tremens” (MARINUS PHARMACEUTICALS INC., priority 2016, dated 2021)

Assays:
[1] = Ganaxolone concentration reached in 30% Captisol solutions (HPLC); format: physicochemical; details: dry mixing method, after 90 hours of stirring
Experimental: 500 μl of 10% aqueous Polysorbate 80 solution in a 20 ml scintillation vial were combined with powdered ganaxolone (50 mg). The mixture was stirred to wet the ganaxolone. Solid Captisol (3.2 g), sufficient to form a 30% Captisol solution, was then added to the vial and the vial contents were mixed. Deionized water (8.0 g) was then added and the mixture was vigorously stirred at room temperature overnight to obtain a hazy solution. An aliquot was filtered through 0.2 μm syringe filter and ganaxolone concentration was assayed by HPLC to be 4.28 mg/ml.
Ganaxolone was vigorously stirred in 30% Captisol in the presence of 10% v/v ethanol overnight to obtain a 3.16 mg/ml ganaxolone solution.
Ganaxolone was vigorously stirred in 30% Captisol in the presence of 10% v/v glycerin overnight to obtain a 3.45 mg/ml ganaxolone solution.
Ganaxolone was vigorously stirred in 30% Captisol in the presence of 10% v/v propylene glycol overnight to obtain a 2.53 mg/ml ganaxolone solution.
Powdered ganaxolone (125 mg) was charged into 100 ml beaker. Captisol powder (7.9 g) was then added to the beaker. The mixture was mixed by stirring with a magnetic stir bar for 5 minutes. Deionized water (20.1 g) was weighed into a plastic cup. About half of the water was added into the beaker and the contents were vigorously stirred for 30 minutes to obtain a homogeneous mixture. […]

[2] = Ganaxolone solubility in water
[3] = tested on: women suffering from postpartum depression; details: women with postpartum depression, cited from earlier work
[4] = human plasma; cited from earlier work

| SMILES | ganaxolone concentration after prolonged stirring [1] | solubility [2] [µg/mL] | mean HAM-D score lower than placebo-treated subjects ([3]; end of sixty hour intravenous infusion, baseline HAM-D greater than 25) [points] | persistence of effects after infusion ([3]; after intravenous infusion) [days] | half-life [4] |
| --- | --- | --- | --- | --- | --- |
| CC(=O)[C@H]1CC[C@H]2[C@@H]3CC[C@H]4C[C@](C)(O)CC[C@]4(C)[C@H]3CC[C@]12C [Ganaxolone, 3α-hydroxy, 3β-methyl-5α-pregnan-20-one] | remained unchanged | < 1 | – | – | – |
| CC(=O)[C@H]1CC[C@H]2[C@@H]3CC[C@H]4C[C@H](O)CC[C@]4(C)[C@H]3CC[C@]12C [Allopregnanolone, 3α,5α-tetrahydroprogesterone] | – | – | 12 | 30 | about 45 minutes |
